Read-outs that look alike come from different tables or passages of the source.
Tests used:
Assay type in all cases: physicochemical
[1] = Water solubility of the solvents; conditions: for H2O-Löslichkeit des Lösungsmittels (%) Gew.-% Lösungs-mittel in Wasser: Tabelle 1 solvents; for Wasserlöslichkeit der Lösungsmittel (%): Säureamide of Tabelle 4
From the text: (§1) Beispiele von Säureamiden sind in der Tabelle 4 zusammengefaßt. Bestimmt wurden die Löslichkeiten der Substanzen 1 (Chloridazon) und 2 (Biscarbamat) wie sie in Tabelle 1 aufgeführt sind, sowie die Wasserlöslichkeit der Lösungsmittel.

[2] = Stability of Phenmedipham in solvents, 24 h storage, HPLC; conditions: 24 Std., read-out: Restwirkstoff an Phenmedipham Wirkstoffgehalt
Procedure: In der folgenden Tabelle sind die Stabilitätsuntersuchungen von Phenmedipham bei verschiedenenen Temperaturen und konstanter Zeit zusammengefaßt. Es wurden 500 mg technischer Wirkstoff in 25 ml Lösungsmittel gelöst, die Lösungen bei der entsprechend gewählten Temperatur 24 Stunden gelagert und der Restwirkstoffgehalt analytisch mit Hilfe der HPLC-Methode bestimmt.

[3] = Phenmedipham degradation in formulations at various temperatures
From the text: Es wurde der Abbau des Phenmedipham bei verschiedenen Temperaturen verfolgt.

[4] = Active ingredient stability in solvents (0,002 molar, HPLC); conditions: for remaining at 5 min, 2000 µM: Abbauzeit 5 min; for remaining at 20 min, 2000 µM: Abbauzeit 20 min; for remaining at 1 h, 2000 µM: Abbauzeit 60 min; for remaining at 7 min, 2000 µM: Abbauzeit 7 min; for remaining at 0.5 h, 2000 µM: Abbauzeit 30 min
From the text: In der Tabelle 2 wird die Wirkstoffstabilität der oben genannten Substanz 2 in verschiedenen Lösungsmitteln als Beispiel aufgeführt. […] Die Konzentration an Wirkstoff war bei diesen Untersuchungen 0,002 molar. Die Analyse wurde mit Hilfe der Hochdruckflüssigkeitschromatographie (HPLC) durchgeführt.

[5] = Solubility of Substanz 1 and Substanz 2 in solvents at room temperature
From the text: as §1

[6] = dimethylformamid (technisch), Dimethylformid (technisch), 50°C, read-out: Wirkstoffgehalt
[7] = dimethylformamid (technisch), Dimethylformid (technisch), 70°C, read-out: Wirkstoffgehalt
[8] = n-methylpyrrolidon, N-Methylpyrrolidon (rein 0,05% H2O), 50°C, read-out: Wirkstoffgehalt
[9] = n-methylpyrrolidone, N-Methylpyrrolidon (rein 0,05% H2O), 30°C, read-out: Wirkstoffgehalt

Compound: O=C1CCCCC1 [Cyclohexanon, reference compound]
- H2O-Löslichkeit des Lösungsmittels (%) Gew.-% Lösungs-mittel in Wasser [1]: 3-4%

Compound: CC1=CC(=O)CC(C)(C)C1 [Isophoron, reference compound]
- H2O-Löslichkeit des Lösungsmittels (%) Gew.-% Lösungs-mittel in Wasser [1]: 1,2%

Compound: COC(=O)Nc1cccc(OC(=O)Nc2cccc(C)c2)c1 [Phenmedipham, 3-Methoxycarbonylaminophenyl-N-(3'-methyl-phenyl)-carbamat]
- remaining at 24 h ([2]; 2-äthylhexancarbonsäureamid, 2-Äthylhexancarbonsäureamid (Nr. 9 aus Tabelle 4), 50°C): 98.1%
- remaining at 24 h ([2]; 2-äthylhexancarbonsäureamid, 2-Äthylhexancarbonsäureamid (Nr. 9 aus Tabelle 4), 70°C): 98%
- remaining at 24 h ([2]; dimethylformamid, 50°C): 9.3%
- remaining at 24 h ([2]; isophoron, 50°C): 99.3%
- remaining at 24 h ([2]; isophoron, 70°C): 96.3%
- remaining at 24 h ([2]; n,n-dipropylbuttersäureamid, N,N-Dipropylbuttersäureamid (Nr. 7 aus Tabelle 4), 50°C): 100%
- remaining at 24 h ([2]; n,n-dipropylbuttersäureamid, N,N-Dipropylbuttersäureamid (Nr. 7 aus Tabelle 4), 70°C): 97.6%
- remaining at 24 h ([2]; n,n-diäthyl-3-methyl-benzolcarbonsäureamid, N,N-Diäthyl-3-methyl-benzolcarbonsäureamid (Nr. 11 Tabelle 4), 50°C): 95.5%
- remaining at 24 h ([2]; n,n-diäthyl-3-methyl-benzolcarbonsäureamid, N,N-Diäthyl-3-methyl-benzolcarbonsäureamid (Nr. 11 Tabelle 4), 70°C): 60%
- Phenmedipham-Abbau Wirkstoffgehalt ([3]; formulation (g/l): 50 Phenmedipham, 150 Chloridazon, 200 Netzmittel, 50 Emulgiermittel, ad 1000 g Dimethylformamid, 50°C, 4 Wochen, 40320 min): 4,8%
- Phenmedipham-Abbau Wirkstoffgehalt ([3]; formulation (g/l): 50 Phenmedipham, 150 Chloridazon, 200 Netzmittel, 50 Emulgiermittel, ad 1000 g Dimethylformamid, Rt, 4 Wochen, 40320 min): 79,5%
- Phenmedipham-Abbau Wirkstoffgehalt ([3]; formulation (g/l): 167 Chloridazon, 83 Phenmedipham, 300 N-Methylpyrrolidon, 24 Morpholin, 100 Emulgiermittel, 326 Cyclohexanon-Destillationsrückstände (DE-PS 16 42 216, Beispiel 6/I), 50°C, 1 Stunde): 30,8%
- Phenmedipham-Abbau Wirkstoffgehalt ([3]; formulation with N-Methylpyrrolidon and Morpholin (DE-PS 16 42 216, Beispiel 6/I), 50°C, 2 Stunden): 16,4%
- Phenmedipham-Abbau Wirkstoffgehalt ([3]; formulation with N-Methylpyrrolidon and Morpholin (DE-PS 16 42 216, Beispiel 6/I), 50°C, 3 Stunden): 12,8%
- Phenmedipham-Abbau Wirkstoffgehalt ([3]; formulation with N-Methylpyrrolidon and Morpholin (DE-PS 16 42 216, Beispiel 6/I), 70°C, 1 Stunde): 3,21%
- Wirkstoffgehalt ([3]; formulation with mixture of Dimethylformamid and Isophoron instead of Dimethylformamid alone, 4 Wochen, 50° C, 40320 min): ca. 60%

Compound: Nc1cnn(-c2ccccc2)c(=O)c1Cl [Substanz 1, 1-Phenyl-4-amino-5-chlor-pyridazon-(6), reference compound]
- Stabilität ([4]; in the solvents of Tabelle 2): keine Schwierigkeiten

Compound: CCOC(=O)Nc1cccc(OC(=O)Nc2ccc(F)c(Cl)c2)c1 [Substanz 2, (3-Chlor-4-fluorphenyl)carbaminsäure-3(ethoxy-carbonyl)amino-phenylester]
- Löslichkeit in % (g Substanz in 100 g Lösung bei Raumtemperatur (RT 20°C)) ([5]; in Cyclohexanon): 35,0%
- Löslichkeit in % (g Substanz in 100 g Lösung bei Raumtemperatur (RT 20°C)) ([5]; in Dimethylformamid): 47,2%
- Löslichkeit in % (g Substanz in 100 g Lösung bei Raumtemperatur (RT 20°C)) ([5]; in Dimethylsulfoxid): 55,3%
- Löslichkeit in % (g Substanz in 100 g Lösung bei Raumtemperatur (RT 20°C)) ([5]; in Isophoron): 33,7%
- Löslichkeit in % (g Substanz in 100 g Lösung bei Raumtemperatur (RT 20°C)) ([5]; in N-Methylpyrrolidon): 30,8%
- Löslichkeit in (%) ([5]; in Säureamid Nr. 1, Rt): 39,9%
- Löslichkeit in (%) ([5]; in Säureamid Nr. 2, Rt): 37,0%
- Löslichkeit in (%) ([5]; in Säureamid Nr. 3, Rt): 43,8%
- Löslichkeit in (%) ([5]; in Säureamid Nr. 4, Rt): 45,4%
- Löslichkeit in (%) ([5]; in Säureamid Nr. 5, Rt): 41,6%
- Löslichkeit in (%) ([5]; in Säureamid Nr. 6, Rt): 49,0%
- Löslichkeit in (%) ([5]; in Säureamid Nr. 7, Rt): 38,8%
- Löslichkeit in (%) ([5]; in Säureamid Nr. 8, Rt): 45,5%
- Löslichkeit in (%) ([5]; in Säureamid Nr. 9, Rt): 29,1%
- Löslichkeit in (%) ([5]; in Säureamid Nr. 10, Rt): 39,5%
- Löslichkeit in (%) ([5]; in Säureamid Nr. 11, Rt): 29,4%
- Löslichkeit in (%) ([5]; in Säureamid Nr. 12, Rt): 33,3%
- Löslichkeit in (%) ([5]; in Säureamid Nr. 13, Rt): 31,1%
- remaining at 5 min, 2000 µM [4, 6]: 99.5%
- remaining at 20 min, 2000 µM [4, 6]: 98.1%
- remaining at 1 h, 2000 µM [4, 6]: 95.5%
- remaining at 7 min, 2000 µM [4, 7]: 98.5%
- remaining at 0.5 h, 2000 µM [4, 7]: 87.2%
- remaining at 1.05 h, 2000 µM ([4]; dimethylformamid (technisch), Dimethylformid (technisch), 70°C, Abbauzeit 63 min, read-out: Wirkstoffgehalt): 57.4%
- remaining at 7 min, 2000 µM ([4]; dimethylformamid (technisch), Dimethylformid (technisch), 80°C, read-out: Wirkstoffgehalt): 85.4%
- remaining at 23 min, 2000 µM ([4]; dimethylformamid (technisch), Dimethylformid (technisch), 80°C, Abbauzeit 23 min, read-out: Wirkstoffgehalt): 54.7%
- remaining at 37 min, 2000 µM ([4]; dimethylformamid (technisch), Dimethylformid (technisch), 80°C, Abbauzeit 37 min, read-out: Wirkstoffgehalt): 32.9%
- remaining at 24 h, 2000 µM ([4]; isophoron, 80°C, Abbauzeit 24 Std., read-out: Wirkstoffgehalt): 93%
- remaining at 5 min, 2000 µM [4, 8]: 92.3%
- remaining at 20 min, 2000 µM [4, 8]: 76.5%
- remaining at 1 h, 2000 µM [4, 8]: 52.8%
- remaining at 5 min, 2000 µM [4, 9]: 100%
- remaining at 0.5 h, 2000 µM [4, 9]: 96.7%
- remaining at 3.5 h, 2000 µM ([4]; n-methylpyrrolidone, N-Methylpyrrolidon (rein 0,05% H2O), 30°C, Abbauzeit 210 min, read-out: Wirkstoffgehalt): 76.3%

Compound: CCCC(=O)N(CCC)CCC [compound 7]
- Wasserlöslichkeit der Lösungsmittel (%) [1]: 1,5%

Compound: CCCN(CCC)C(=O)C(C)C [compound 8]
- Wasserlöslichkeit der Lösungsmittel (%) [1]: 1,6%

Compound: CCCCC(CC)C(=O)N(C)C (centres unmarked) [compound 9]
- Wasserlöslichkeit der Lösungsmittel (%) [1]: 1,5%

Compound: CCN(CC)C(=O)c1ccccc1 [compound 10]
- Wasserlöslichkeit der Lösungsmittel (%) [1]: 3,7%

Compound: CCN(CC)C(=O)c1cccc(C)c1 [compound 11]
- Wasserlöslichkeit der Lösungsmittel (%) [1]: 2,2%

Compound: CCCN(CCC)C(=O)c1ccccc1 [compound 12]
- Wasserlöslichkeit der Lösungsmittel (%) [1]: 0,5%

Reference: EP0044955B1, “Liquid herbicide mixtures” (BASF Aktiengesellschaft, priority 1980, dated 1982)
